Data from ChEMBL document CHEMBL1152246, “Design, synthesis and RNase A inhibition activity of catechin and epicatechin and nucleobase chimeric molecules” (Bioorg Med Chem Lett, 2008).
Activity calls are given as the source filed them. The rule behind the calls is not given here.

Legend:
[1] = biological target: T1, Ribonuclease pancreatic (Homo sapiens) (UniProt P07998); test: Inhibition of RNase A assessed as degradation of 28s and 18s rRNA at 0.476 mM after 6 hrs by agarose gel based assay
T1 sequence (whole entry): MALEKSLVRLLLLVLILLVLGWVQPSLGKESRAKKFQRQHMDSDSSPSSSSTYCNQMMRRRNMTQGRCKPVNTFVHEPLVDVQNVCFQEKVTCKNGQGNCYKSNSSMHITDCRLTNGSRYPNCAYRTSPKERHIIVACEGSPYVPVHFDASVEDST

[2] = biological target: T1, Ribonuclease pancreatic (Homo sapiens); test: Inhibition of RNase A assessed as degradation of 28s and 18s rRNA at 0.412 mM after 6 hrs by agarose gel based assay

Structure (SMILES)	Activity [1]	Activity [2]
Nc1ncnc2c1ncn2CCn1cc(CO[C@H]2Cc3c(O)cc(O)cc3O[C@@H]2c2ccc(O)c(O)c2)nn1	Active	–
Nc1ncnc2c1ncn2CCn1cc(CO[C@@H]2Cc3c(O)cc(O)cc3O[C@@H]2c2ccc(O)c(O)c2)nn1	Active	–
CCOC(=O)Cn1c(=O)c(C)cn(CCn2cc(CO[C@H]3Cc4c(O)cc(O)cc4O[C@@H]3c3ccc(O)c(O)c3)nn2)c1=O	–	inactive
CCOC(=O)Cn1c(=O)c(C)cn(CCn2cc(CO[C@@H]3Cc4c(O)cc(O)cc4O[C@@H]3c3ccc(O)c(O)c3)nn2)c1=O	–	inactive
